Earlier results, collected in EP1019029B1, “MONOLITHIC SYSTEM CONTAINING ONE OR MORE DRUGS, CONSISTING OF THREE LAYERS WITH DIFFERENT RELEASE MECHANISMS” (CHIESI FARMACEUTICI S.p.A., priority 1997, dated 1999).
Where two headings read alike, the source gives them in different places.

Row | water solubilities (at 37°C) | water solubilities (at 20°C) | SMILES
1 | 2.5 mg/mL |  | C[C@@](Cc1ccc(O)c(O)c1)(NN)C(=O)O [Carbidopa]
2 |  | 500 mg/mL | COC(=O)[C@@H](N)Cc1ccc(O)c(O)c1 [Levodopa methyl ester]
